US9260425B2 (Genetech, Inc., priority 2011, dated 2016)

Tests used:
BaF3 PIM1 cells = assay: In vitro cell proliferation potency assay, BaF3 line transfected with PIM-1 (Cell Titer Glo); format: cell-based, murine; settings: Mus musculus, incubated overnight, read-out: Prolif. BaF3 PIM-1 (IC50)
Procedure: (§1) In Vitro Cell Proliferation Potency Assays
BaF3 parental line was obtained from the DSMZ repository. […] Mouse IL-3 was purchased from R&D Systems. G418 was purchased from Clontech. Media for BaF3 parental line contained RPMI, 10% FBS, 2 mM L-Glutamine, 2 ng/mL mIL-3. Media for BaF3 PIM1 & 2 lines contained RPMI, 10% FBS, 2 mM L-Glutamine, […]. Media for MM1.S (multiple myeloma cells) line contained RPMI, 10% FBS, 2 mM L-Glutamine.
(§2) BaF3, a murine interleukin-3 dependent pro-B cell line, parental cells, BaF3 PIM1 cells, BaF3 PIM-2 cells, and MM1.S (multiple myeloma) cells were seeded at 2 k/well, 5 k/well, 5 k/well, and 10 k/well respectively, in a 384-well plate, at 45 μL/well. Test compound was added at 5 μL/well. BaF3 cells (parental and transfected) were incubated overnight, while MM1.S cells were incubated for 72 hours at 37° C., 5% CO2. Cell Titer Glo Reagent (Promega) was added at 50 μL/well, the plates were incubated for 30 minutes, and their luminescence read on an HT Analyst. IC50/EC50 values for the test compound were calculated.

[1] = test system: MM1.S (multiple myeloma) cells; assay: In vitro cell proliferation potency assay, MM1.S cells (Cell Titer Glo); format: cell-based; settings: Homo sapiens, 72 hours, read-out: Prolif. MM1S ATP (EC50)
Procedure: as §1
(§3) BaF3 parental line was obtained from the DSMZ repository. BaF3 lines transfected with PIM-1 or PIM-2 were generated. Mouse IL-3 was purchased from R&D Systems. G418 was purchased from Clontech. Media for BaF3 parental line contained RPMI, 10% FBS, 2 mM L-Glutamine, 2 ng/mL mIL-3. Media for BaF3 PIM1 & 2 lines contained RPMI, 10% FBS, 2 mM L-Glutamine, […]. Media for MM1.S (multiple myeloma cells) line contained RPMI, 10% FBS, 2 mM L-Glutamine.
as §2

BaF3 parental cells = assay: In vitro cell proliferation potency assay, BaF3 parental line with IL-3 (Cell Titer Glo); format: cell-based, murine; settings: Mus musculus, 2 ng/mL mIL-3, incubated overnight, read-out: Prolif. BaF3 IL3 (IC50)
Procedure: as §1, §3, §2

Pim-1 = Pim-1 (Homo sapiens (Human), UniProt P11309); assay: Pim kinase binding activity assay (Example 901), PIM-1 enzyme, Caliper microfluidic peptide phosphorylation; format: biochemical; settings: 20 pM PIM-1, 10 μM ATP, 1 μM FAM-peptide, 90 minutes at room temperature
Procedure, shortened: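 The readout was microfluidic mobility-shift separation of a FAM-tagged Pim-specific peptide, excited at 488 nm and read at 530 nm, with Ki calculated from percent conversion. Reactions held 20 pM PIM-1, 1 μM peptide and 10 μM ATP in pH 7.2 HEPES/MgCl2/DTT buffer, ran 90 min at room temperature and were stopped with EDTA.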

Pim-1, sequence (P11309 whole entry): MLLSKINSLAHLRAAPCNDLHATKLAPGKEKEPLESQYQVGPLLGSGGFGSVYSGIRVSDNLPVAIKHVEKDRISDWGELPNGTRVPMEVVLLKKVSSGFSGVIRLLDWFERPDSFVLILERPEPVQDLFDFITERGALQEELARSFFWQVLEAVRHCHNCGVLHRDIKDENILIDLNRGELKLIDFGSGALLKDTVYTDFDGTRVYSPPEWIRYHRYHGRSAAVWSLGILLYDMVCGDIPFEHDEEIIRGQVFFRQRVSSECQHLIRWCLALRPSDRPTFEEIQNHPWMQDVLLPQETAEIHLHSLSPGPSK

SMILES	IC50 (BaF3 PIM1 cells) [nM]	EC50 [1] [nM]	Ki (Pim-1) [nM]	IC50 (BaF3 parental cells) [nM]
NC1CCN(c2cccc(-c3n[nH]c4cnc(-c5cccnc5)cc34)n2)CC1 [Example 144, 1-(6-(5-(pyridin-3-yl)-1H-pyrazolo[3,4-c]pyridin-3-yl)pyridin-2-yl)piperidin-4-amine]	130	2200	0.0839	3300
N[C@H]1CCN(c2cncc(-c3cc4c(-c5ccccc5F)n[nH]c4cn3)c2)C1 [Example 190, (S)-1-(5-(3-(2-fluorophenyl)-1H-pyrazolo[3,4-c]pyridin-5-yl)pyridin-3-yl)pyrrolidin-3-amine]	159	67.2	0.27	1800
N[C@H]1CCCN(c2cccc(-c3n[nH]c4cnc(-c5cccnc5)cc34)n2)C1 [Example 161, (S)-1-(6-(5-(pyridin-3-yl)-1H-pyrazolo[3,4-c]pyridin-3-yl)pyridin-2-yl)piperidin-3-amine]	731	281	0.0411	1400
NC1CCN(c2nc(-c3n[nH]c4cnc(-c5cccnc5)cc34)ccc2Cl)CC1 [Example 241, 1-(3-chloro-6-(5-(pyridin-3-yl)-1H-pyrazolo[3,4-c]pyridin-3-yl)pyridin-2-yl)piperidin-4-amine]	584	57.3	0.096	1300
NC1CCN(c2cncc(-c3cc4c(-c5ccccc5F)n[nH]c4cn3)n2)CC1 [Example 147, 1-(6-(3-(2-fluorophenyl)-1H-pyrazolo[3,4-c]pyridin-5-yl)pyrazin-2-yl)piperidin-4-amine]	368	60.4	0.121	3900

Now from value to compound, other results behind:

IC50 (BaF3 PIM1 cells) [nM]	EC50 [1] [nM]	Ki (Pim-1) [nM]	SMILES	IC50 (BaF3 parental cells) [nM]
336	201	0.048	N[C@H]1CCCN(c2cccc(-c3n[nH]c4cnc(-c5cccnc5)cc34)n2)CC1 [Example 248, (S)-1-(6-(5-(pyridin-3-yl)-1H-pyrazolo[3,4-c]pyridin-3-yl)pyridin-2-yl)azepan-4-amine]	1600
110	170	0.078	Cn1cc(-c2cc3c(-c4cccc(N5CCCC(C)(O)C5)n4)n[nH]c3cn2)cn1 (centres unmarked) [Example 383, 3-methyl-1-(6-(5-(1-methyl-1H-pyrazol-4-yl)-1H-pyrazolo[3,4-c]pyridin-3-yl)pyridin-2-yl)piperidin-3-ol]	1300
62.8	114	0.0549	Cc1ccc(-c2n[nH]c3cnc(-c4cccnc4)cc23)nc1N1CC[C@@H](N)C1 [Example 316, (R)-1-(3-methyl-6-(5-(pyridin-3-yl)-1H-pyrazolo[3,4-c]pyridin-3-yl)pyridin-2-yl)pyrrolidin-3-amine]	1000
709	244	0.26	OCCN1CCCN(c2cccc(-c3n[nH]c4cnc(-c5cccnc5)cc34)n2)CC1 [Example 357, 2-(4-(6-(5-(pyridin-3-yl)-1H-pyrazolo[3,4-c]pyridin-3-yl)pyridin-2-yl)-1,4-diazepan-1-yl)ethanol]	4900
40.2	97.9	0.01	Cc1cncc(-c2cc3c(-c4cccc(N5CCNCC5)n4)n[nH]c3cn2)n1 [Example 505, 5-(6-methylpyrazin-2-yl)-3-(6-(piperazin-1-yl)pyridin-2-yl)-1H-pyrazolo[3,4-c]pyridine]	2300
30.9	356	0.009	Cn1cc(-c2cc3c(-c4ccc(Br)c(N5CCC[C@H](N)C5)n4)n[nH]c3cn2)cn1 [Example 376, (S)-1-(3-bromo-6-(5-(1-methyl-1H-pyrazol-4-yl)-1H-pyrazolo[3,4-c]pyridin-3-yl)pyridin-2-yl)piperidin-3-amine]	4100
